Reference: US20240239759A1, “ISOXAZOLINE COMPOSITIONS AND THEIR USE AS ANTIPARASITICS” (Intervet Inc., priority 2007, published 2024)
“And” between values parts separate entries of the source, which are not always exact repeats. Equal entries are not always repeated.

Legend:
[1] = Side effects in mice, flea study (Example 2A); type: in vivo; settings: topical 100 ppm, oral or subcutaneous 10 mg/kg
Description: (§1) Mice were divided into groups of three, and treated topically with 100 ppm body weight, orally with 10 mg/kg bodyweight, or subcutaneously with 10 mg/kg bodyweight of Compound 11-1, fipronil (positive control), or nothing (negative control). These mice were sedated and infested with adult fleas (C. felis) 1, 3, 6, and 24 hr after treatment. Fleas were recovered from the mice after approximately 30 minutes of feeding. The assessment of flea inhibition (% of dead and damaged fleas) was conducted 1 and 24 hr after each infestation.

[2] = Side effects in Guinea pigs, soft tick and bed bug study (Example 2C); type: in vivo; settings: Guinea pigs; oral, subcutaneous or intraperitoneal 10 mg/kg
Description: (§2) Six Guinea pigs were treated orally, subcutaneously, or intraperitoneally with 10 mg/kg bodyweight of Compound 11-1 or fipronil (positive control). The Guinea pigs were locally co-infested with juvenile soft ticks (O. moubata) and bed bugs (C. lectularius) once before the treatment, and at different time points after treatment between days 2 and 50. Ten engorged ticks/bed bugs were collected to assess the percentage of killed individuals per species 24 hr after each infestation.

[3] = tested on: bed bugs (C. lectularius); experiment: Efficacy against bed bugs on Guinea pigs (Example 2C); type: in vivo, Cimex lectularius; settings: Guinea pig
Description: as §2
(§3) For Guinea pigs treated with Compound 11-1, the ticks and bed bugs died within 1 to 5 hr following infestation up to Day 29, and within 8 to 24 hr after day 29. For Guinea pigs treated with fipronil, ticks and bed bugs died within 1 to 7 hr after infestation up to Day 29, and within 8 to 24 hr after day 29.

[4] = tested on: adult fleas (C. felis); experiment: Efficacy against fleas on mice (Example 2A); type: in vivo, Ctenocephalides felis
Description: as §1

[5] = Side effects in Guinea pigs, hard tick studies (Example 2D); type: in vivo; settings: guinea pig, in vivo
Description: (§4) Guinea pigs were divided into groups of three. Each group was subjected to one of the following treatments with either Compound 11-1, fipronil (positive control), or neither (negative control):
(§5) • 1. 100 ppm body weight topical administration by animal dip • 2. 10 mg/kg body weight oral administration • 3. 10 mg/kg body weight subcutaneous administration • 4. No treatment (negative control)
(§6) • 1. 25 ppm body weight topical administration by animal dip • 2. 2.5 mg/kg body weight oral administration • 3. 2.5 mg/kg body weight subcutaneous administration • 4. No treatment (negative control) One day before the treatment, all the Guinea pigs were infested with 100 vital juvenile (“nymph”) hard ticks (brown dog ticks, R. sanguineus). Engorged, detached nymphs were counted (eN) from Day 4 to Day 8 to calculate the efficacy of the treatments according to following formula: […]
In the first study, 32 engorged R. sanguineus nymphs were collected from animals of the untreated negative control group. And in the second study, 75 engorged R. sanguineus nymphs were collected from animals of the untreated negative control group. […] Thus, the inhibition of engorged nymphs for both Compound 11-1 and fipronil was 100%.

[6] = tested on: cat fleas (Ctenocephalides felis); experiment: Adult fleas fed on artificial membranes with spiked blood (Example 1); settings: 48 hr continuous feeding
Description: Adult fleas (20-30) were fed on artificial membranes with blood spiked with Compound 10-1, Compound 11-1, or a positive control (fipronil) at a concentration of 100, 10, or 1 ppm. Flea efficacy was assessed after 48 hr of continuous feeding by comparing the number of killed and damaged fleas with the number of fed fleas. Flea efficacy was 100% for Compound 10-1, Compound 11-1, and fipronil at 100, 10, and 1 ppm.

[7] = tested on: brown dog ticks, R. sanguineus (nymphs); experiment: Efficacy against hard (Ixodide) ticks on Guinea pigs (Example 2D); type: in vivo, Rhipicephalus sanguineus; settings: all treated groups of Study 1 (100 ppm dip, 10 mg/kg oral, 10 mg/kg subcutaneous) and Study 2 (25 ppm dip, 2.5 mg/kg oral, 2.5 mg/kg subcutaneous), Day 4 to Day 8
Description: as §4, §5, §6
In addition, collected ticks were assessed for molting into the next stage.

[8] = tested on: juvenile soft ticks (O. moubata); experiment: Efficacy against soft (Argaside) ticks on Guinea pigs (Example 2C); type: in vivo, Ornithodoros moubata; settings: Guinea pig, up to Day 50
Description: as §2, §3

[9] = tested on: M. musculinus; experiment: Efficacy against mites on mice (Example 2B); type: in vivo, Myocoptes musculinus; set-up: key: “+”=low infestation rate; “++”=medium infestation rate; “+++”=high infestation rate; settings: repeated 7 days later
Description: The mice were divided into groups of three, and treated topically with 100 ppm body weight, orally with 10 mg/kg body weight, or subcutaneously with 10 mg/kg body weight of Compound 11-1, fipronil (positive control), or nothing (negative control). This treatment was then repeated 7 days later. The infestation rate per mouse (“+”=low infestation rate, “++”=medium infestation rate, “+++”=high infestation rate) was assessed repeatedly on days 1, 6, 9, 13, and 23. Efficacy was defined as the inhibition of the mite infestation rate on treated mice relative to the negative control group.

Structure (SMILES): N#Cc1nn(-c2c(Cl)cc(C(F)(F)F)cc2Cl)c(N)c1[S+]([O-])C(F)(F)F (centres unmarked) [fipronil, reference compound]
- Side effects [1]: No side effects were observed
- Side effects [2]: No side effects were observed
- Efficacy against bed bugs (killed 24 hr after infestation) ([3]; intraperitoneal 10 mg/kg, up to Day 18): 100% efficacy was observed up to Day 18.
- Efficacy against bed bugs (killed 24 hr after infestation) ([3]; oral 10 mg/kg, up to Day 18): 100% efficacy was observed up to Day 18.
- Efficacy against bed bugs (killed 24 hr after infestation) ([3]; subcutaneous 10 mg/kg, on Day 37): up to Day 35. 50% efficacy was observed
- Flea inhibition (% of dead and damaged fleas) ([4]; oral 10 mg/kg, infested 1 hr after treatment, assessed 1 hr after infestation): 0-2%
- Flea inhibition (% of dead and damaged fleas) ([4]; oral 10 mg/kg, infested 1 hr after treatment, assessed 24 hr after infestation): 3.3%
- Flea inhibition (% of dead and damaged fleas) ([4]; oral 10 mg/kg, infested 3 hr after treatment, assessed 1 hr after infestation): 0-2%
- Flea inhibition (% of dead and damaged fleas) ([4]; oral 10 mg/kg, infested 3 hr after treatment, assessed 24 hr after infestation): 12.3%
- Flea inhibition (% of dead and damaged fleas) ([4]; oral 10 mg/kg, infested 6 hr after treatment, assessed 1 hr after infestation): 0-2%
- Flea inhibition (% of dead and damaged fleas) ([4]; oral 10 mg/kg, infested 6 hr after treatment, assessed 24 hr after infestation): 6.7%
- Flea inhibition (% of dead and damaged fleas) ([4]; oral 10 mg/kg, infested 24 hr after treatment, assessed 1 hr after infestation): 0-2%
- Flea inhibition (% of dead and damaged fleas) ([4]; oral 10 mg/kg, infested 24 hr after treatment, assessed 24 hr after infestation): 7.7%
- Flea inhibition (% of dead and damaged fleas) ([4]; subcutaneous 10 mg/kg, infested 1 hr after treatment, assessed 1 hr after infestation): 0-2%
- Flea inhibition (% of dead and damaged fleas) ([4]; subcutaneous 10 mg/kg, infested 1 hr after treatment, assessed 24 hr after infestation): 1.0%
- Flea inhibition (% of dead and damaged fleas) ([4]; subcutaneous 10 mg/kg, infested 3 hr after treatment, assessed 1 hr after infestation): 0-2%
- Flea inhibition (% of dead and damaged fleas) ([4]; subcutaneous 10 mg/kg, infested 3 hr after treatment, assessed 24 hr after infestation): 15.7%
- Flea inhibition (% of dead and damaged fleas) ([4]; subcutaneous 10 mg/kg, infested 6 hr after treatment, assessed 1 hr after infestation): 0-2%
- Flea inhibition (% of dead and damaged fleas) ([4]; subcutaneous 10 mg/kg, infested 6 hr after treatment, assessed 24 hr after infestation): 97.7%
- Flea inhibition (% of dead and damaged fleas) ([4]; subcutaneous 10 mg/kg, infested 24 hr after treatment, assessed 1 hr after infestation): 0-2%
- Flea inhibition (% of dead and damaged fleas) ([4]; subcutaneous 10 mg/kg, infested 24 hr after treatment, assessed 24 hr after infestation): 94.3%
- Flea inhibition (% of dead and damaged fleas) ([4]; topical 100 ppm body weight, infested 1 hr after treatment, assessed 1 hr after infestation): 0-2%
- Flea inhibition (% of dead and damaged fleas) ([4]; topical 100 ppm body weight, infested 1 hr after treatment, assessed 24 hr after infestation): 100%
- Flea inhibition (% of dead and damaged fleas) ([4]; topical 100 ppm body weight, infested 3 hr after treatment, assessed 1 hr after infestation): 0-2%
- Flea inhibition (% of dead and damaged fleas) ([4]; topical 100 ppm body weight, infested 3 hr after treatment, assessed 24 hr after infestation): 94.3%
- Flea inhibition (% of dead and damaged fleas) ([4]; topical 100 ppm body weight, infested 6 hr after treatment, assessed 1 hr after infestation): 0-2%
- Flea inhibition (% of dead and damaged fleas) ([4]; topical 100 ppm body weight, infested 6 hr after treatment, assessed 24 hr after infestation): 100%
- Flea inhibition (% of dead and damaged fleas) ([4]; topical 100 ppm body weight, infested 24 hr after treatment, assessed 1 hr after infestation): 0-2%
- Flea inhibition (% of dead and damaged fleas) ([4]; topical 100 ppm body weight, infested 24 hr after treatment, assessed 24 hr after infestation): 76.7%
- Side effects [5]: No side effects were observed
- Flea efficacy ([6]; blood spiked at 1 ppm): 100%
- Flea efficacy ([6]; blood spiked at 10 ppm): 100%
- Flea efficacy ([6]; blood spiked at 100 ppm): 100%
- Engorged R. sanguineus nymphs collected [7]: no nymphs were collected
- Inhibition of engorged nymphs [7]: 100%
- Efficacy against soft ticks (killed 24 hr after infestation) ([8]; intraperitoneal 10 mg/kg): 100% efficacy was observed up to Day 50.
- Efficacy against soft ticks (killed 24 hr after infestation) ([8]; oral 10 mg/kg): 100% efficacy was observed up to Day 50.
- Efficacy against soft ticks (killed 24 hr after infestation) ([8]; subcutaneous 10 mg/kg): 100% efficacy was observed up to Day 50.
- Mite infestation rate per mouse ([9]; oral 10 mg/kg, Day 1): +++
- Mite infestation rate per mouse ([9]; oral 10 mg/kg, Day 6): ++ to +++
- Mite infestation rate per mouse ([9]; oral 10 mg/kg, Day 9): ++ to +++
- Mite infestation rate per mouse ([9]; oral 10 mg/kg, Day 13): +
- Mite infestation rate per mouse ([9]; oral 10 mg/kg, Day 23): +
- Mite infestation rate per mouse ([9]; subcutaneous 10 mg/kg, Day 1): +++
- Mite infestation rate per mouse ([9]; subcutaneous 10 mg/kg, Day 6): 2 mice: + to ++ and 1 mouse: +++
- Mite infestation rate per mouse ([9]; subcutaneous 10 mg/kg, Day 9): 2 mice: + to ++ and 1 mouse: +++
- Mite infestation rate per mouse ([9]; subcutaneous 10 mg/kg, Day 13): +
- Mite infestation rate per mouse ([9]; subcutaneous 10 mg/kg, Day 23): + to ++
- Mite infestation rate per mouse ([9]; topical 100 ppm body weight, Day 1): 2 mice: + to ++ and 1 mouse: +++ (all
- Mite infestation rate per mouse ([9]; topical 100 ppm body weight, Day 6): + to ++
- Mite infestation rate per mouse ([9]; topical 100 ppm body weight, Day 9): 2 mice: none and 1 mouse: +
- Mite infestation rate per mouse ([9]; topical 100 ppm body weight, Day 13): none
- Mite infestation rate per mouse ([9]; topical 100 ppm body weight, Day 23): none
